According to patent US20070135499A1 (Aerie Pharmaceuticals, Inc., priority 2005, published 2007):

Biological target: T1, hGRK-2 (Homo sapiens, UniProt P25098)
T1 sequence (P25098 1-689): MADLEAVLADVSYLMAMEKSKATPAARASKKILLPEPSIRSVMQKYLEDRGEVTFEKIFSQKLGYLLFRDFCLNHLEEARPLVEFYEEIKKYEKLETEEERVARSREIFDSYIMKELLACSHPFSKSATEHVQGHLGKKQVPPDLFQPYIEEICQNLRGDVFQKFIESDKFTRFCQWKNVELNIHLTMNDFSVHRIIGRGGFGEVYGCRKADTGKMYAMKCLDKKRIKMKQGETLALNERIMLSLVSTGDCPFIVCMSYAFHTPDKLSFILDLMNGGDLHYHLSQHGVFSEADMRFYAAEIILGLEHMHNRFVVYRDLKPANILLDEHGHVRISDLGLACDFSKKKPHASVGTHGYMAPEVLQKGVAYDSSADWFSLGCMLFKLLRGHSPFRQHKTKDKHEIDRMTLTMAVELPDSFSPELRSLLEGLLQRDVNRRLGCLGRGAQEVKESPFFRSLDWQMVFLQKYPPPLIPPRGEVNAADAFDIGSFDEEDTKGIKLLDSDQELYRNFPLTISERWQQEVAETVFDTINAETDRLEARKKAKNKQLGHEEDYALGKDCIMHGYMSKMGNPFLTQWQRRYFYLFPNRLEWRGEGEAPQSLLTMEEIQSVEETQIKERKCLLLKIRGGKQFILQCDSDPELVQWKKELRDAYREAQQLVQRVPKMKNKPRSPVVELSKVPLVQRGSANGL
Assay: luciferase-based (Kinase-Glo) biochemical kinase inhibition assay, hGRK-2
Details: luciferase assay, casein substrate, 10 μM ATP; read-out: GRK-2 inhibition, Ki class
Protocol: The inhibition of G-protein-coupled receptor kinases including hGRK-2 was determined for the hydrazide compounds using a biochemical assay. The inhibition of GRK-3, GRK-5 and GRK-6 was also determined using the same assay for some of the hydrazide derivatives.
The protein kinase inhibition was determined using a biochemical assay utilizing the light emission of a luciferase reaction. The luciferase-based assay operates on the following reaction principles: [drawing 10]
An inhibitor of GRK-2 will increase in the amount of ATP in solution, as shown. Thus, an inhibitor of GRK-2 will drive the luciferase reaction to the right, resulting in more light emitted. The amount of light emitted is proportional to the inhibition resulting from the GRK-2 inhibitor. The luciferase-based assay was also used to test some of the hydrazides for the inhibition properties towards other kinases.
The test procedure was as follows:
• 50 mM HEPES, pH 7.5 • 10 mM MgCl2 • 100 μM activated sodium orthovanadate • 0.01% CHAPS • 0.1% BSA • 1 mM DTT (added fresh daily) 10× Assay Buffer Stock: • 500 mM HEPES, pH 7.5 • 100 mM MgCl2 • 1 mM activated sodium orthovanadate • 0.1% CHAPS • 1% BSA (leave out for 10× compound dilution buffer) Final Assay Conditions: • 50 μM test compound • 20 μM casein • 10 μM ATP • 50 nM hGRK2 • 4.5% DMSO • 90-120 minute incubation
Stopped by addition of 30 μl 3×-diluted Kinase-Glo reagent containing 0.01% trypan blue. Counted on FUSION plate reader.
Compound Dilution and Transfer
Prepare sufficient buffer containing 40% DMSO to add 20 μl/well to the number of plates being assayed. This buffer should not contain BSA because it will precipitate with addition of 40% DMSO. (EXAMPLE: To make 3000 ml compound dilution buffer: 1200 ml DMSO, 180 ml 10× compound dilution buffer, 1615 ml ultrapure water, 3 ml 1M DTT.).
Using Multidrop, add 20 μl of compound dilution buffer to all wells of the 384-well daughter plate (add 1 μl DMSO to control wells). This will result in a daughter plate which contains 21 μl of ˜500 μM test compound.
Using the PlateTrak, transfer 5 μl of the test compounds to a 384-well, non-binding, white microtiter plate.
Prepare sufficient volume of buffer (with BSA and 1 mM DTT) containing 125 nM GRK2 and 25 μM ATP. (Example: To 219 ml of buffer was added 550 μl 10 mM ATP and 350 μl 79 μM GRK2).
Using Multidrop, add 20 μl of GRK2/ATP mixture to all wells of the microtiter plate.
Prepare sufficient volume of buffer (with BSA and 1 mM DTT) containing 40 μM casein. (EXAMPLE: To 211 ml buffer add 8.8 ml 1 mM casein)
Using Multidrop, add 25 μl to columns 1 through 23 of the microtiter plate. Add 25 μl of complete buffer to column 24 (blanks).
Mix reaction gently by tapping (Multidrop addition of casein does a decent job of mixing), stack plates and incubate at room temperature for between 90 and 120 minutes. Assay progression can be tracked in a separate plate if desired. Target 20-30% ATP consumption. Try to avoid exceeding 40% consumption as kinetics might become non-linear due to substrate (ATP) depletion.
Addition of Kinase-Glo Reagents
The Kinase-Glo reagent can be diluted 3-fold with no loss of data quality in this assay. Additionally, since the library contains many colored compounds which will quench the light emitted from the well resulting in a false negative (kinase inhibitors result in less ATP consumption thus more light emitted), the entire reaction is subject to intentional quench to override this effect. This intentional quench is accomplished by the addition of 0.01% trypan blue to the Kinase-Glo reagents. (EXAMPLE: 100 ml 1× Kinase-Glo reagents (prepared according to product insert), 200 ml assay buffer, 7.5 ml 0.4% trypan blue.
Using Multidrop, add 30 μl to all wells of the assay plate.
Count on FUSION plate reader in luminescence mode.

| SMILES | Ki [nM] |
| --- | --- |
| O=C(CNc1cccc(Oc2cccnc2)c1)N/N=C/c1ccncc1 [Example 86, [3-(Pyridin-3-yloxy)-phenylamino]-acetic acid [1-pyridin-4-yl-meth-(E)-ylidene]-hydrazide] | 100 to 1000 |
| O=C(CNc1cccc(Oc2ccc(OC(F)(F)F)cc2)c1)NN=Cc1ccncc1 (mixture of isomers) [Example 77, [3-(4-Trifluoromethoxy-phenoxy)-phenylamino]-acetic acid [1-pyridin-4-yl-meth-(E/Z)-ylidene]-hydrazide] | 100 to 1000 |
| COc1ccccc1NCC(=O)N/N=C/c1ccncc1 [Example 67, (2-Methoxy-phenylamino)-acetic acid [1-pyridin-4-yl-meth-(E)-ylidene]-hydrazide] | > 10000 |
| CC(C)c1cccc(NCC(=O)N/N=C/c2c(Cl)cncc2Cl)c1 [Example 16, (3-Isopropyl-phenylamino)-acetic acid [1-(3,5-dichloro-pyridin-4-yl)-meth-(E)-ylidene]-hydrazide] | > 10000 |
| Cc1ccc(Oc2cccc(NCC(=O)N/N=C/c3c(Cl)cncc3Cl)c2)cc1 [Example 35, (3-p-Tolyloxy-phenylamino)-acetic acid [1-(3,5-dichloro-pyridin-4-yl)-meth-(E)-ylidene]-hydrazide] | 1000 to 10000 |
| Cc1ccc(NCC(=O)N/N=C/c2c(Cl)cncc2Cl)cc1 [Example 17, p-Tolylamino-acetic acid [1-(3,5-dichloro-pyridin-4-yl)-meth-(E)-ylidene]-hydrazide] | 1000 to 10000 |
| O=C(CNc1ccc(F)cc1)N/N=C/c1ccncc1 [Example 53, (4-fluoro-phenylamino)-acetic acid [1-pyridin-4-yl-meth-(E)-ylidene]-hydrazide] | 1000 to 10000 |
| COc1cc(NCC(=O)N/N=C/c2ccncc2)cc(OC)c1 [Example 100, (3,5-Dimethoxy-phenylamino)-acetic acid [1-pyridin-4-yl-meth-(E)-ylidene]-hydrazide] | > 10000 |
| O=C(CNc1cccc(Oc2ccc(F)c(F)c2)c1)N/N=C/c1ccncc1 [Example 83, [3-(3,4-Difluoro-phenoxy)-phenylamino]-acetic acid [1-pyridin-4-yl-meth-(E)-ylidene]-hydrazide] | 100 to 1000 |
| CC(C)c1cccc(NCC(=O)N/N=C/c2ccncc2)c1 [Example 61, (3-Isopropyl-phenylamino)-acetic acid [1-pyridin-4-yl-meth-(E)-ylidene]-hydrazide] | > 10000 |

The remaining lines, values ahead:

| Ki [nM] | SMILES |
| --- | --- |
| > 10000 | CC(Nc1cccc(Oc2ccccc2)c1)C(=O)N/N=C/c1ccncc1 (stereo not shown) [Example 99, 2-(3-phenoxy-phenylamino)-propionic acid [1-pyridin-4-yl-meth-(E)-ylidene]-hydrazide] |
| 1000 to 10000 | CC(=O)Nc1cccc(NCC(=O)N/N=C/c2c(Cl)cncc2Cl)c1 [Example 27, N-(3-{[1-(3,5-Dichloro-pyridin-4-yl)-meth-(E)-ylidene-hydrazinocarbonylmethyl]-amino}-phenyl)-acetamide] |
| > 10000 | O=C(CNc1cccc(Cl)c1)N/N=C/c1ccsc1 [Example 93, (3-Chloro-phenylamino)-acetic acid [1-thiophen-3-yl-meth-(E)-ylidene]-hydrazide] |
| 100 to 1000 | O=C(CNc1ccccc1)N/N=C/c1ccncc1 [Example 42, Phenylamino-acetic acid [1-pyridin-4-yl-meth-(E)-ylidene]-hydrazide] |
| 1000 to 10000 | CC(C)Oc1cccc(NCC(=O)N/N=C/c2c(Cl)cncc2Cl)c1 [Example 19, (3-Isopropoxy-phenylamino)-acetic acid [1-(3,5-dichloro-pyridin-4-yl)-meth-(E)-ylidene]-hydrazide] |
| > 10000 | O=C(CNc1cccc(-n2cncn2)c1)N/N=C/c1c(Cl)cncc1Cl [Example 31, (3-[1,2,4]Triazol-1-yl-phenylamino)-acetic acid [1-(3,5-dichloro-pyridin-4-yl)-meth-(E)-ylidene]-hydrazide] |
| > 10000 | Cn1cncc1/C=N/NC(=O)CNc1cccc(Cl)c1 [Example 92, (3-Chloro-phenylamino)-acetic acid [1-(3-methyl-3H-imidazol-4-yl)-meth-(E)-ylidene]-hydrazide] |
| 10 to 100 | COc1ccc(Oc2cccc(NCC(=O)NN=Cc3ccncc3)c2)cc1 (mixture of isomers) [Example 81] |
| 1000 to 10000 | O=C(CNc1cccc(C(F)(F)F)c1)N/N=C/c1ccncc1 [Example 50, (3-Trifluoromethyl-phenylamino)-acetic acid [1-pyridin-4-yl-meth-(E)-ylidene]-hydrazide] |
| > 10000 | Cc1ccc(NCC(=O)N/N=C/c2ccncc2)cc1 [Example 56, (4-Methyl-phenylamino)-acetic acid [1-pyridin-4-yl-meth-(E)-ylidene]-hydrazide] |
| > 10000 | Cc1ccccc1Oc1ccccc1NCC(=O)N/N=C/c1c(Cl)cncc1Cl [Example 30, (^2-o-Tolyloxy-phenylamino)-acetic acid [1-(3,5-dichloro-pyridin-4-yl)-meth-(E)-ylidene]-hydrazide] |
| 100 to 1000 | O=C(CNc1cccc(Br)c1)N/N=C/c1ccncc1 [Example 44, (3-Bromo-phenylamino)-acetic acid [1-pyridin-4-yl-meth-(E)-ylidene]-hydrazide] |
